From paper PMC5756575, “In Vitro Biotransformation, Safety, and Chemopreventive Action of Novel 8-Methoxy-Purine-2,6-Dione Derivatives” (Applied Biochemistry and Biotechnology, 2017)
“Also recorded” adds a separate entry of the source. Like-named read-outs stand apart in the source and are kept apart here.

Legend:
[1] = test system: Cunninghamella echinulata NRRL 1384; test: Cunninghamella biotransformation assay, C. echinulata; format: in vitro ADME; conditions: 0.5 mg/mL, 7-day incubation, LC-MS/MS
Method: (§1) Three different strains of Cunninghamella were used: Cunninghamella echinulata NRRL 1384, Cunninghamella blakesleeana 1908 DMS, and Cunninghamella elegans 1906 DMS. The first was provided by Dr. A.J. Carnell (University of Liverpool, UK), whereas the two remaining were purchased from Deutsche Sammlung von Mikroorganismen und Zellkulturen GmbH (DMSZ, Braunschweig, Germany).
(§2) Cunninghamella strains were cultivated on solid potato dextrose agar (PDA) plates at 28 °C. After 4 days, a liquid fermentation basal medium was prepared by the addition of 6 g of D-glucose, 1.5 g of NaCl, 1.5 g of yeast extract from Saccharomyces cerevisiae, and 1.5 g of K2HPO4 to 300 mL of distilled water. Aliquots of 24.5 mL of medium were inoculated with 300 μL of suspension of fungal spores obtained after wetting colonies in PDA. The fungi were incubated with shaking until the formation of spherical clumps.
(§3) Compounds 2–4 were evaluated in this experiment. Once microorganisms formed spherical clumps in the preliminary incubation, the corresponding tested compound was added to the broth and the mixture was incubated for 7 days. Two control experiments were also performed, in the absence of compound and fungus, respectively. Biotransformation progress was monitored by TLC and by liquid chromatography electrospray ionization-tandem mass spectrometry (LC-MS/MS). Monitoring was performed at four different incubation times: 30 min, 3 days, 5 days, and 7 days.
(§4) To analyze metabolites in LC-MS/MS, an aliquot of 500 μL of filtered sample was taken and extracted with 500 μL of dichloromethane. The organic fraction was dried with sodium sulfate, filtered, and evaporated. The obtained residue was analyzed in LC-MS/MS. At the end of experiment, all the remaining medium was extracted with 25 mL of dichloromethane after separating the fungal clumps by filtration over cellulose filters.
(§5) Agilent 1100 HPLC system (Agilent Technologies, Waldbronn, Germany) equipped with a Xbridge™ C18 analytical column (2.1 × 30 mm, […]; Waters, Dublin, Ireland) was used in the chromatographic separation of LC-MS/MS analysis. An elution gradient of acetonitrile and water, with 0.1% of formic acid, was used as a mobile phase. MS spectra were taken at Applied Biosystems MDS Sciex API 200 triple quadrupole mass analyzer (Concord, Ontario, Canada) with an electrospray ionization (ESI) interface between HPLC and MS.

[2] = test system: rat liver microsomes; test: Microsomal stability assay; format: in vitro ADME; conditions: rat microsomal biotransformation after 30 min of incubation
Method: Compounds 1 and 3 were studied in a biotransformation assay using rat liver microsomes following procedures described previously. The reagents used in this assay were levallorphan (internal standard) and NADPH-regenerating system, which contained phosphate buffer (pH 7.4), NADP^+, glucose-6-phosphate, and glucose-6-phosphate dehydrogenase. The final protein concentration in the assay was 0.4 mg/mL. Compounds 1 and 3 were tested at a final concentration of 20 μM.
The amount of a parental compound remaining in a solution after biotransformation was monitored using LC-MS/MS as described previously in “Cunninghamella Biotransformation Assay.” Graphs representing ln of percentage of parent compound remaining versus incubation time were drawn to calculate in vitro half-time (t1/2) from the slope of linear regression. To obtain intrinsic clearance (Clint) of a tested compound in rat liver microsomal assay, t1/2 previously calculated was substituted at the equation Clint = [(Vmic/Pmic) × 0.693/t1/2], being Vmic and Pmic the volume of incubation in microliters and the amount of incubated protein in milligrams, respectively.
as §5

[3] = test system: Salmonella typhimurium TA100; test: Ames mutagenicity test; format: cell-based
Method: From them, 0.2 mM working solutions were prepared by dilution with water. […]
(§6) In the Ames test, Salmonella typhimurium TA100 strain was used. This strain has a base-pair substitution that can be reverted by mutations at GC pairs. In addition, it contains mutations at uvrB-bio and rfa genes to eliminate excision repair mechanisms and to make the bacteria more permeable to chemicals, respectively. Finally, TA100 also includes pKM101 plasmid, which enhances both chemical and UV-induced mutagenesis via an increase in the error-prone recombinational DNA repair pathway. TA100 strain of S. typhimurium was provided by Dr. T. Nohmi (Division of Genetics and Mutagenesis, National Institute of Hygienic Sciences, Tokyo, Japan). V. harveyi and S. typhimurium bacterial cultures were maintained at 30 and 37 °C, respectively.
It causes point mutations at the genome as it induces G:C → A:T transitions in Vibrio harveyi strains and in other bacteria such as Escherichia coli and S. typhimurium. […]
S. typhimurium was cultivated in a fresh medium 12 h prior to a test. To perform mutagenicity assay, 100 μL of an overnight culture (containing approx. 1 × 10^8 to 2 × 10^8 bacteria) were inoculated along with 50 μL of a tested compound in 2 mL of top agar supplemented with traces of histidine and of biotin. Then the mixture was added over the surface of GM agar plates and was left incubating 48 h at 37 °C. Afterwards, the colonies were counted manually.

[4] = test system: Vibrio harveyi BB7XM; format: cell-based; conditions: compound 40 ng/mL + NQNO 40 ng/mL
From the text: (§7) Four Vibrio harveyi strains were used in this study: a wild-type BB7 (naturally found in the Baltic Sea) and three genetically modified strains, namely BB7M (obtained by the introduction of pAB1273 plasmid containing the genes mucA and mucB to enhance the error-prone DNA repair), BB7X (hypersensitive to UV radiation after genetic modification with Tn5TpMCS), and BB7XM (containing the two abovementioned modifications). These strains were kindly provided by Prof. G. Węgrzyn (Department of Molecular Biology, University of Gdańsk, Poland).
(§8) It causes point mutations at the genome as it induces G:C → A:T transitions in Vibrio harveyi strains and in other bacteria such as Escherichia coli and S. typhimurium. […] Next, its working solution was prepared in sterile water, being 40 ng/mL its final concentration.
(§9) Procedure followed in the V. harveyi antimutagenicity assay was similar to the mutagenicity method described before. […] The results were expressed as the inhibition percentage of mutagenic effect, which was calculated with the formula: 100 − [(R 1/R 2) × 100], where R 1 is the number of revertants per plate in the presence of both mutagen and tested substance, and R 2 is the number of revertants per plate in the presence of mutagen. […] S. typhimurium antimutagenicity assay was based on similar assumptions as the V. harveyi antimutagenicity test. In this case, the chemopreventive activity was determined at two concentrations of a tested compounds and a standard mutagen, i.e., 40 and 500 ng/mL.

[5] = test system: Salmonella typhimurium TA100; test: S. typhimurium antimutagenicity assay against NQNO; format: cell-based; conditions: for Number of revertants per plate, Mean ± SD: antimutagenicity, NQNO line = NQNO as a single compound
From the text: as §6, §8, §9

[6] = test system: Vibrio harveyi BB7XM; test: Vibrio harveyi mutagenicity assay, BB7XM; format: cell-based; conditions: 40 ng/mL
Method: (§10) From them, 0.2 mM working solutions were prepared by dilution with water. […] Working solutions were prepared by 1:100 dilution of stock solution in water, and final compound concentration assayed was 40 ng/mL.
as §7, §8
(§11) To perform the V. harveyi mutagenicity test, 10 μL of a working solution of the tested compound (100 μg/mL) were added to V. harveyi bacterial culture (OD600 = 0.1) in NaCl-containing BOSS liquid medium, being 40 ng/mL the final concentration of the tested compound. […] Then, an inoculum containing 5 × 10^6 cells was added to solid BOSS agar plate supplemented with neomycin sulfate at a final concentration of 100 μg/mL. Samples were left incubating 48 h at 30 °C, and revertant colonies were counted manually.

[7] = test system: Vibrio harveyi BB7X; test: Vibrio harveyi antimutagenicity assay against NQNO, BB7X; format: cell-based; conditions: compound 40 ng/mL + NQNO 40 ng/mL
From the text: as §7, §8, §9

[8] = test system: Vibrio harveyi BB7M; test: Vibrio harveyi antimutagenicity assay against NQNO, BB7M; format: cell-based; conditions: compound 40 ng/mL + NQNO 40 ng/mL
From the text: as §7, §8, §9

[9] = test system: Cunninghamella strains; test: Cunninghamella biotransformation assay, three strains together and blank without fungus; format: in vitro ADME; conditions: three strains, LC-MS/MS
Method: as §1, §2, §3, §4
Agilent 1100 HPLC system (Agilent Technologies, Waldbronn, Germany) equipped with a Xbridge™ C18 analytical column (2.1 × 30 mm, […]; Waters, Dublin, Ireland) was used in the chromatographic separation of LC-MS/MS analysis. […]

[10] = test system: Vibrio harveyi BB7M; conditions: 40 ng/mL
Method: as §10, §7, §8, §11

[11] = test system: Vibrio harveyi BB7; conditions: BB7, 40 ng/mL
Method: as §10, §7, §8, §11

[12] = test system: Vibrio harveyi BB7X; conditions: 40 ng/mL
Method: as §10, §7, §8, §11

[13] = test system: Vibrio harveyi BB7; test: Vibrio harveyi antimutagenicity assay against NQNO, BB7; format: cell-based
From the text: as §7, §8, §9

[14] = test system: Cunninghamella elegans 1906 DMS; test: Cunninghamella biotransformation assay, C. elegans; format: in vitro ADME; conditions: 0.5 mg/mL, 7-day incubation, LC-MS/MS
Method: as §1, §2, §3, §4, §5

[15] = test system: Cunninghamella blakesleeana 1908 DMS; test: Cunninghamella biotransformation assay, C. blakesleeana; format: in vitro ADME; conditions: 0.5 mg/mL, 7-day incubation, LC-MS/MS
Method: as §1, §2, §3, §4, §5

[16] = TA100, 500 ng/mL (NQNO control stated as 40 ng/mL in method)
[17] = antimutagenicity, NQNO line = NQNO as a single compound
[18] = TA100, compound and NQNO 40 ng/mL
[19] = TA100, compound and NQNO 500 ng/mL

Question: For `COc1nc2c(c(=O)n(C)c(=O)n2C)n1CCCC(=O)NCc1cccc(O)c1` [3-M3], which “% of compound/metabolite in C. echinulata” value [1] is on record?
Answer: 0.3%

Question: With `COc1nc2c(c(=O)n(C)c(=O)n2C)n1CCCC(N)=O` [3-M1] as the compound, how does the “% content among metabolites” value [2] read?
Answer: 100%

Question: And the “% of compound/metabolite in C. echinulata” value [1]?
Answer: 1.5%

Question: Which “Number of revertants per plate, Mean ± SD” value ([3]; TA100, 40 ng/mL) does the source give for `COC(=O)Cn1c(OC)nc2c1c(=O)n(C)c(=O)n2C` [Compound 2, methyl 2-(8-methoxy-1,3-dimethyl-2,6-dioxo-purin-7-yl)acetate] here?
Answer: 10 ± 3

Question: And the “MI (mutagenicity index)” value ([3]; TA100, 40 ng/mL, mutagenic if MI >2.0)?
Answer: 0.3

Question: What about the “MI (mutagenicity index)” value [3, 16] of the same compound?
Answer: 0.5

Question: What about the “Number of revertants per plate, Mean ± SD” value [3, 16] of the same compound?
Answer: 14 ± 5

Question: What about the “Number of revertants per plate, Mean ± SD” value [4, 17] of the same compound?
Answer: 68 ± 8

Question: What about the “% inhibition of NQNO mutagenicity” value [4] of the same compound?
Answer: 12%

Question: What about the “% inhibition of NQNO mutagenicity” value [5, 18] of the same compound?
Answer: 92%

Question: And the “% inhibition of NQNO mutagenicity” value [5, 19]?
Answer: 91%

Question: And the “Number of revertants per plate, Mean ± SD” value [5, 18]?
Answer: 7 ± 2

Question: What about the “Number of revertants per plate, Mean ± SD” value [5, 19] of the same compound?
Answer: 9 ± 4

Question: And the “MI (mutagenicity index)” value ([6]; mutagenic if MI above 2.0)?
Answer: 1.6

Question: What about the “Number of revertants per plate, Mean ± SD” value ([6]; mutagenicity) of the same compound?
Answer: 53 ± 8

Question: What about the “Number of revertants per plate, Mean ± SD” value [7, 17] of the same compound?
Answer: 35 ± 6

Question: What about the “% inhibition of NQNO mutagenicity” value [7] of the same compound?
Answer: 68%

Question: And the “Number of revertants per plate, Mean ± SD” value [8, 17]?
Answer: 45 ± 10

Question: And the “% inhibition of NQNO mutagenicity” value [8]?
Answer: 54%

Question: What about the “biotransformation / detectable metabolites in Cunninghamella model (in words)” value [9] of the same compound?
Answer: did not undergo any biotransformation; also recorded: None of the three Cunninghamella strains evaluated generated detectable metabolites

Question: What about the “MI (mutagenicity index)” value ([10]; mutagenic if MI above 2.0) of the same compound?
Answer: 1.3

Question: What about the “Number of revertants per plate, Mean ± SD” value ([10]; mutagenicity) of the same compound?
Answer: 36 ± 9

Question: What about the “MI (mutagenicity index)” value ([11]; mutagenic if MI above 2.0) of the same compound?
Answer: 1.2

Question: And the “Number of revertants per plate, Mean ± SD” value ([11]; mutagenicity)?
Answer: 15 ± 2

Question: And the “MI (mutagenicity index)” value ([12]; mutagenic if MI above 2.0)?
Answer: 1.2

Question: And the “Number of revertants per plate, Mean ± SD” value ([12]; mutagenicity)?
Answer: 27 ± 2

Question: And the “% inhibition of NQNO mutagenicity” value ([13]; BB7, compound 40 ng/mL + NQNO 40 ng/mL)?
Answer: 38%

Question: What about the “Number of revertants per plate, Mean ± SD” value ([13]; antimutagenicity, BB7, compound 40 ng/mL + NQNO 40 ng/mL, NQNO line = NQNO as a single compound) of the same compound?
Answer: 34 ± 7

Question: And the “chemopreventive (antimutagenic) effect, class” value ([13]; wild BB7 strain, against NQNO)?
Answer: moderate or a close to moderate

Question: What does the source list for `COc1nc2c(c(=O)n(C)c(=O)n2C)n1CCCC(=O)NCc1ccc(O)cc1` [3-M4]?
Answer: % of compound/metabolite in C. elegans [14]: – – – 0.6%; % of compound/metabolite in C. echinulata [1]: 4.2%; % of compound/metabolite in C. blakesleeana [15]: – – – 4.6%
